{"source": "ChEMBL document CHEMBL1201862", "about": "“PubChem BioAssay data set” (2004)", "key": {"[1]": {"target": "T1, Voltage-gated N-type calcium channel alpha-1B subunit/Amyloid beta A4 precursor protein-binding family A member 1 (Homo sapiens, UniProt Q00975+Q02410)", "T1 sequence (Q00975 whole entry)": "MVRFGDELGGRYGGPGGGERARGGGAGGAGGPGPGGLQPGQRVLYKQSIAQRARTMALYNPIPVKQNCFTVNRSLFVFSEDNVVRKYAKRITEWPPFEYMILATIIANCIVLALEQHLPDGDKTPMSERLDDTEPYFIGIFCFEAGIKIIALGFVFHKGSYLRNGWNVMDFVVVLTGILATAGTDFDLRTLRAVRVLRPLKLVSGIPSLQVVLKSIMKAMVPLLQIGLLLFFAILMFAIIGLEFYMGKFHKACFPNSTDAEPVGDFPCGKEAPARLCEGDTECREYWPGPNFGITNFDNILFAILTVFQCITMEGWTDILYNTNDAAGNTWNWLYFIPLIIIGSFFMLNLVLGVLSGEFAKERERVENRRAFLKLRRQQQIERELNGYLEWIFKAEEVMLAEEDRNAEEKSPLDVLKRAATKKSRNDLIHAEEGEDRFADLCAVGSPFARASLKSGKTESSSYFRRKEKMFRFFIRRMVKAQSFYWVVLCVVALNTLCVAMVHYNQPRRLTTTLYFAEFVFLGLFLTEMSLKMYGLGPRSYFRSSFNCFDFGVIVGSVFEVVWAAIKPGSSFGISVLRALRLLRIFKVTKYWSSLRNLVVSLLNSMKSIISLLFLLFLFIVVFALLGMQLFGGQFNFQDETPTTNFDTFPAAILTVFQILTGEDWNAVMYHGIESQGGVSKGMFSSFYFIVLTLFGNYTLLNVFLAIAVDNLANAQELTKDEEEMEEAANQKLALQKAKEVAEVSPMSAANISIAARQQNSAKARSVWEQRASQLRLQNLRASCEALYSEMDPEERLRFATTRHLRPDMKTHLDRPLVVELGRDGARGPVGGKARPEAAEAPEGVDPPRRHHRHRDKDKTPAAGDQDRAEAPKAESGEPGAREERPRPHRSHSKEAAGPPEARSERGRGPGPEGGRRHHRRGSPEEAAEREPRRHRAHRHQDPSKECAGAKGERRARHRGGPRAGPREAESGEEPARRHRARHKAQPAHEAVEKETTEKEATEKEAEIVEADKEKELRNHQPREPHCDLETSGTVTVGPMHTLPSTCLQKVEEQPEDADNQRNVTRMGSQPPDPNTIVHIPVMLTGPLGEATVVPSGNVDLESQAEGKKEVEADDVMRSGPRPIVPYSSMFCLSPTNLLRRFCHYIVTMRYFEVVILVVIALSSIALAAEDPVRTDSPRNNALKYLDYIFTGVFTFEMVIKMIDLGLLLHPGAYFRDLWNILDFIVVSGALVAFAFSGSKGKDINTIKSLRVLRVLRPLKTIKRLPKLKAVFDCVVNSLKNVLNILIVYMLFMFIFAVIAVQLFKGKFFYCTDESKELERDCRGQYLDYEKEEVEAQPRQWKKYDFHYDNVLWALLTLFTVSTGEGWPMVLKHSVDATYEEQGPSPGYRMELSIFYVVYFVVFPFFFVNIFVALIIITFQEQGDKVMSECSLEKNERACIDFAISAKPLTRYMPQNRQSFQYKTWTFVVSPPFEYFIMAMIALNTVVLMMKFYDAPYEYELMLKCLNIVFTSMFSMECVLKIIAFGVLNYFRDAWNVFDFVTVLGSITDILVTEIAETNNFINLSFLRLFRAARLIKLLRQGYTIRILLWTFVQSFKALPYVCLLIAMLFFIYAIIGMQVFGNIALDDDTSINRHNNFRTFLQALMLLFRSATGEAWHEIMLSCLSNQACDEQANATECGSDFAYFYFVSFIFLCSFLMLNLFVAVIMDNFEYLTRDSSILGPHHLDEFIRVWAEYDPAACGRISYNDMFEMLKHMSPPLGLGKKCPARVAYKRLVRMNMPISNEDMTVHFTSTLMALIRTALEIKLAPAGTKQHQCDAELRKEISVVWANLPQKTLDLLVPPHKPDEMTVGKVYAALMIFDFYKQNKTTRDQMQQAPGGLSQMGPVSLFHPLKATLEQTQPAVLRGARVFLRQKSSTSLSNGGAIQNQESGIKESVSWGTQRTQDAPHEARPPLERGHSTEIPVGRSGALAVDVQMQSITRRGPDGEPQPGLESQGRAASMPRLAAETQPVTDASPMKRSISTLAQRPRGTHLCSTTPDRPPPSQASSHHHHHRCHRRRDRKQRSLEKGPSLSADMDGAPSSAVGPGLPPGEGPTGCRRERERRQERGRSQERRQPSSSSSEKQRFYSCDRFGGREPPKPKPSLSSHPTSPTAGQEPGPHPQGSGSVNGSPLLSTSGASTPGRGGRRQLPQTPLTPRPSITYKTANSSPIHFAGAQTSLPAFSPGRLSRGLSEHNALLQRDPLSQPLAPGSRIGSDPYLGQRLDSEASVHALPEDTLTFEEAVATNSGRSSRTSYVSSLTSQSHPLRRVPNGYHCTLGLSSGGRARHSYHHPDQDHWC", "T1 sequence (Q02410 whole entry)": "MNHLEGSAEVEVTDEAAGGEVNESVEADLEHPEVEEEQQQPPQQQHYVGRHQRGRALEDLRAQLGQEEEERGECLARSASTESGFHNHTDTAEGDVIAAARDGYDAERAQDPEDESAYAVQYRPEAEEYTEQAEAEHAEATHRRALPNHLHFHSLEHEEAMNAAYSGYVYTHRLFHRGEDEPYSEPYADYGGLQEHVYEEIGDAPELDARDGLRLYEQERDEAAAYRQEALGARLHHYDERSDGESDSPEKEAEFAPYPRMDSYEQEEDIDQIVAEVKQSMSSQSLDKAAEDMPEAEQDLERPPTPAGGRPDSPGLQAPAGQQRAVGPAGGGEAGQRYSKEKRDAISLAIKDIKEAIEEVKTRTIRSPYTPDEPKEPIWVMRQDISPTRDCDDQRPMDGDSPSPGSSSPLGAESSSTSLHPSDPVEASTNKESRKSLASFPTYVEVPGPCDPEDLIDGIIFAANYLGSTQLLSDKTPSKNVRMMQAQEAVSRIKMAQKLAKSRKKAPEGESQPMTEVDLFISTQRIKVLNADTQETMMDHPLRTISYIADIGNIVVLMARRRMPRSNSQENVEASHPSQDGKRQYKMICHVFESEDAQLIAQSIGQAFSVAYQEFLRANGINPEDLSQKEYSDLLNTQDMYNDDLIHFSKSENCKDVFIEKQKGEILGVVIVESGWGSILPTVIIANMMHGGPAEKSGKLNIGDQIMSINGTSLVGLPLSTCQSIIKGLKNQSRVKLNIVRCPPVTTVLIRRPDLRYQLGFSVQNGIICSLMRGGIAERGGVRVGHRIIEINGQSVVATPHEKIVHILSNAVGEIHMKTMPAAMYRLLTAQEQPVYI", "assay_type": "protein assay"}, "[2]": {"target": "T1, Voltage-gated N-type calcium channel alpha-1B subunit/Amyloid beta A4 precursor protein-binding family A member 1", "assay_type": "protein assay", "remark": "listed apart in the source"}, "CAAX prenyl protease 2": {"target": "T2, CAAX prenyl protease 2 (Saccharomyces cerevisiae S288c, UniProt Q03530)", "T2 sequence (Q03530 whole entry)": "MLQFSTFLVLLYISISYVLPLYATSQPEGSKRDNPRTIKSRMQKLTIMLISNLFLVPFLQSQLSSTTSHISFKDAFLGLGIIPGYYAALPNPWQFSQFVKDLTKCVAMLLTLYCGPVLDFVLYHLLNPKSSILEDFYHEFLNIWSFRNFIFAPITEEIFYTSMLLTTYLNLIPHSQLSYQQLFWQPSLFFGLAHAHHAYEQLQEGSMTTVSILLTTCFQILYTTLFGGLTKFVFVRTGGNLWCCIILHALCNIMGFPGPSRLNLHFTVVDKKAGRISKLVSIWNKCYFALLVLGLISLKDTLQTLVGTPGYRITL", "assay_type": "biochemical"}, "[3]": {"test": "HEK-293T cell viability reduction – luminescence, B-cell screen hits, cytotoxicity control for BCR NF-kB inhibitor project, dose response (AID 489021);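 note: cells exposed to compound for about 14 hours before viability readout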", "assay_type": "functional, cell-based"}, "[4]": {"target": "Alkaline phosphatase, placental type (Homo sapiens, UniProt P05187)", "sequence (P05187 whole entry)": "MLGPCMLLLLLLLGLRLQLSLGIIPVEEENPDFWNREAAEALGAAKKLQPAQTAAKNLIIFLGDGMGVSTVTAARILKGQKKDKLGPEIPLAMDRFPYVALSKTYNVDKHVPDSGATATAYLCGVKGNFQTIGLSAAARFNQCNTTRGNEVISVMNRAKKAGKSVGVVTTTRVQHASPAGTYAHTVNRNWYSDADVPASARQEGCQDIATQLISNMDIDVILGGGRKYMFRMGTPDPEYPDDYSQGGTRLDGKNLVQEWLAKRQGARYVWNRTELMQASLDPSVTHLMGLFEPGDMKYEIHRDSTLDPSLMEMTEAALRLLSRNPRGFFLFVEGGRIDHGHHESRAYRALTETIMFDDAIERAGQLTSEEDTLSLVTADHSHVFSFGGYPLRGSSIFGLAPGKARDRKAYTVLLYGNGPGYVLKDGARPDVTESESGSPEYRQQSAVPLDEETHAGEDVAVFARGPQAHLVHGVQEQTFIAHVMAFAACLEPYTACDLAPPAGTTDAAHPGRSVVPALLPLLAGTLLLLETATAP", "test": "human placental alkaline phosphatase inhibition – biochemical, luminescence, confirmation (AID 1512)", "assay_type": "functional"}, "[5]": {"target": "T3, Alkaline phosphatase, tissue-nonspecific isozyme (Homo sapiens, UniProt P05186)", "T3 sequence (P05186 whole entry)": "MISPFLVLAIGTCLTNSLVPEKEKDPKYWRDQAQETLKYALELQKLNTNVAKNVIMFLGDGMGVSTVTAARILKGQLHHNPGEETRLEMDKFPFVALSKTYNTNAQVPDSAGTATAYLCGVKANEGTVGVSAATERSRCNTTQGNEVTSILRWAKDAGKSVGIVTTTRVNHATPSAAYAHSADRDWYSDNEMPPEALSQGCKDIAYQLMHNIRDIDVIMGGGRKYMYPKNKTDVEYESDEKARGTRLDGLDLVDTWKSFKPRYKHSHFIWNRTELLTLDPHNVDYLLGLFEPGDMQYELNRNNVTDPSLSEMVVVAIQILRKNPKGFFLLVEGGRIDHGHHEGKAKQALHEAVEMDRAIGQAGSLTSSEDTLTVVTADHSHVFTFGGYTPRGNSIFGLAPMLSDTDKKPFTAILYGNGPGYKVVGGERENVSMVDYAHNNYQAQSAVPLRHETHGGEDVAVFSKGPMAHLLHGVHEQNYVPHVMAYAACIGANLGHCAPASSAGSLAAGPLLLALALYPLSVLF", "test": "potency against alkaline phosphatase TNAP – biochemical, luminescent, dose response, SAR follow-up (AID 1056)"}, "[6]": {"target": "T4, Neuropeptides B/W receptor type 1 (Homo sapiens, UniProt P48145)", "T4 sequence (P48145 whole entry)": "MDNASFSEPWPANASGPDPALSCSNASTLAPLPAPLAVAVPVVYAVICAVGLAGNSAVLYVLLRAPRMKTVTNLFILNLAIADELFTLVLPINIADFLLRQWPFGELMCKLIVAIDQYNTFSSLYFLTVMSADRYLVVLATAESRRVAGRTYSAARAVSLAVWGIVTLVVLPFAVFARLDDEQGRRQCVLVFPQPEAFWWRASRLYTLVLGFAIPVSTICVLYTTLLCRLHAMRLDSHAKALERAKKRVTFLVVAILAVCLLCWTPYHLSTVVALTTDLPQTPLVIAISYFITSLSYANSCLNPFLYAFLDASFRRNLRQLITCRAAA", "test": "Fluorescence-based dose response cell-based high throughput screening assay to identify antagonists of the G-protein coupled receptor 7 (GPR7). [Related pubchem assays: 1952 (Screening assay (GPR7 antagonists).), 1880 (Summary AID.)]", "assay_type": "functional"}, "[7]": {"target": "Melanin-concentrating hormone receptor 1 (Homo sapiens, UniProt Q99705)", "sequence (Q99705 whole entry)": "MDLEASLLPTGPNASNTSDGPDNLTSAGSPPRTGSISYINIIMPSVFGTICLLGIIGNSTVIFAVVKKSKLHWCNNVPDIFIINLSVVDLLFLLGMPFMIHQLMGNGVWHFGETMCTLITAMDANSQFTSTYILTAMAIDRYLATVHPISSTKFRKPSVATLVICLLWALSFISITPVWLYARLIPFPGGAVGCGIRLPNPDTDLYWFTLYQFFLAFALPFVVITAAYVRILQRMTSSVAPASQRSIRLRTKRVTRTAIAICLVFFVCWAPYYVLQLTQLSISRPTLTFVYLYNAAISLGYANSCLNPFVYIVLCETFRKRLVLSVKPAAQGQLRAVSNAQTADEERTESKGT", "test": "Fluorescence-based counterscreen for antagonists of the G-protein coupled receptor 7 (GPR7): cell-based high throughput dose response assay to identify antagonists of the melanin-concentrating hormone receptor 1 (MCHR1).", "assay_type": "functional"}, "[8]": {"target": "Eukaryotic translation initiation factor 4E (Mus musculus, UniProt P63073)", "sequence (P63073 whole entry)": "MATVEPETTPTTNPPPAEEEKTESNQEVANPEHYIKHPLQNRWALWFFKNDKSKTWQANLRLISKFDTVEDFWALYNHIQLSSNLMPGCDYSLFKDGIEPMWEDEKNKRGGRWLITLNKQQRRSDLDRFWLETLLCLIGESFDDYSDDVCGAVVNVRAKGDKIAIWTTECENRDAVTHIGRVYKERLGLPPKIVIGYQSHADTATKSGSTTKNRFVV", "test": "blockers of eIF4G binding by eIF4E – biochemical, TR-FRET, dose response (AID 855);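 note: potency for disrupting eIF4E binding to eIF4GI seen as loss of FRET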", "assay_type": "functional"}, "[9]": {"test": "luciferase reporter signal suppression in cells – H4 neuroglioma cells, luminescence, dose response (AID 1990)", "assay_type": "functional, cell-based"}, "[10]": {"test": "luciferase reporter signal reduction – luminescence, H4-C neuroglioblastoma cells, dose response (AID 2458);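 note: H4 neuroglioblastoma cells stably carrying a luciferase reporter gene fusion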", "assay_type": "functional, cell-based"}, "cells": {"test": "cells", "assay_type": "functional, cell-based"}, "[11]": {"test": "alpha-synuclein stem-loop luciferase translation blockers – H4 neuroglioma cells, luminescence, confirmation (AID 1988)", "assay_type": "functional, cell-based"}, "[12]": {"test": "viability of PTEN-deleted HCT116 cells – cell-based, HCT116 PTEN knockout, dose response (AID 1047);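 note: HCT116 colon tumor cells with PTEN knocked out; cells exposed to compound for 60 hours before readout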", "assay_type": "functional"}, "[13]": {"test": "viability of HCT116 lacking mutant beta-catenin – cell-based, human colon tumor, dose response (AID 1045);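 note: HCT116 colon tumor cells with beta catenin knocked out; cells exposed to compound for 60 hours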", "assay_type": "functional"}, "[14]": {"test": "alpha-synuclein stem-loop translation blockers – luminescence, H4 neuroglioblastoma cells, dose confirmation, confirmation (AID 2454)", "assay_type": "functional, cell-based"}, "[15]": {"test": "HEK-293T viability loss after treatment – luminescence, T-cell screen hits, cytotoxicity control for TCR NF-kB inhibitor project, dose response (AID 489026);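 note: cells exposed to compound about 14 hours before the viability readout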", "assay_type": "functional, cell-based"}}, "note": "The source made the active and inactive calls.", "data": [{"smiles": "Cc1cc(C)c2c(=O)n(CC(=O)N3CCC(Cc4ccccc4)CC3)sc2n1", "values": [{"measurement": "IC50", "setting": "[1]", "result": "15.5 µM (active)"}, {"measurement": "IC50", "setting": "[2]", "result": "> 50 µM (inactive)"}]}, {"smiles": "CC(C)c1ccc(/C=C2\\SC(=S)N(CCC(=O)NCCCn3ccnc3)C2=O)cc1", "values": [{"measurement": "AC50", "setting": "CAAX prenyl protease 2", "result": "> 100 µM (inactive)"}, {"measurement": "IC50", "setting": "[3]", "result": "> 80 µM (inactive)"}]}, {"smiles": "O=C(CNc1ccncc1)c1ccc(O)c(O)c1", "values": [{"measurement": "IC50", "setting": "[4]", "result": "> 100 µM (inactive)"}, {"measurement": "IC50", "setting": "[5]", "result": "> 100 µM (inactive)"}]}, {"smiles": "Cc1ccc(-n2c(SCC(N)=O)nnc2-c2ccc(S(=O)(=O)N3CCCCC3)cc2)c(C)c1", "values": [{"measurement": "IC50", "setting": "[6]", "result": "5.29 µM (active)"}, {"measurement": "IC50", "setting": "[7]", "result": "29.6 µM (not active)"}]}, {"smiles": "O=C(NC1CCCCC1)C1CCN(c2cnccn2)CC1", "values": [{"measurement": "IC50", "setting": "[8]", "result": "> 64 µM (inactive)"}]}, {"smiles": "COc1ccc(S(=O)(=O)N2CCN(CC(=O)Nc3cccc(OC)c3)CC2)cc1", "values": [{"measurement": "IC50", "setting": "[6]", "result": "> 43.8 µM (not active)"}, {"measurement": "IC50", "setting": "[7]", "result": "> 43.8 µM (not active)"}]}, {"smiles": "CCn1c2ccccc2c2cc(Nc3cc(C)nc4ncnn34)ccc21", "values": [{"measurement": "EC50", "setting": "[9]", "result": "< 100 nM (active)"}, {"measurement": "EC50", "setting": "[10]", "result": "265 nM (active)"}, {"measurement": "EC50", "setting": "cells", "result": "255 nM (active)"}, {"measurement": "EC50", "setting": "[11]", "result": "< 100 nM (active)"}, {"measurement": "EC50", "setting": "[12]", "result": "< 59 nM (active)"}, {"measurement": "EC50", "setting": "[13]", "result": "< 59 nM (active)"}, {"measurement": "EC50", "setting": "[14]", "result": "354 nM (active)"}, {"measurement": "IC50", "setting": "[15]", "result": "43.4 µM (inactive)"}]}]}
